The target of series [1] is Human immunodeficiency virus type 1 protease (Human immunodeficiency virus 1, UniProt Q72874). The experiment in a line: Tested for inhibitory activity against HIV protease.
The test system of series [2] is Lymphocytoid cell line. The experiment in a line: Tested for cytotoxicity (concentration required to reduce 50% of the viable cell population) in presence of metabolizable tetrazolium dye in human lymphocytoid cell lines MT-2 or MT-4 using the RF strain of HIV-1. The series is classed as functional. To be noted: read-out: TC50 (the source's name).
Series [3] deals with Lymphocytoid cell line. The series can be described thus: Tested for the ability to inhibit viral replication (HIV-1 RNA) in human lymphocytoid cell lines MT-2 or MT-4 using the RF strain of HIV-1. The series is classed as functional.
Series [4] is described as follows: Tested for volume of distribution at steady state upon intravenous administration of 5.0 mg/Kg dose in rat. It counts as ADME, organism-based. The following applies: in vivo, read-out: Vss.
Series [5] can be described thus: Tested for systemic clearance upon intravenous administration of 5.0 mg/Kg dose in rat. The series is classed as ADME, organism-based. To be noted: in vivo.
The nature of series [6]: Cmax in plasma was determined upon peroral administration of 10.0 mg/Kg dose in rat. It counts as ADME, organism-based. More on the design: dose 10 mg/Kg, route oral. The following applies: po.
A short description of series [7]: Tested for t1/2 upon intravenous administration of 5.0 mg/Kg dose in rat. It counts as ADME, organism-based. To be noted: in vivo.
In series [8] the test system is Human immunodeficiency virus 1. The series can be described thus: Tested for the ability to block cleavage of HIV-1 gag polyprotein using [35S]methionine-labeled ligand. The series is classed as functional, organism-based.
Series [9] can be described thus: Tested for t1/2 upon intravenous administration of 5.0 mg/Kg dose in dog. To be noted: in vivo. The series is classed as ADME, organism-based, Canis lupus familiaris.
The nature of series [10]: Bioavailability in dog (dose 10.0 mg/kg p.o.). The series is classed as ADME, organism-based, Canis lupus familiaris. The following applies: in vivo, po.
Series [11] in a line: Tested for systemic clearance upon intravenous administration of 5.0 mg/Kg dose in dog. The following applies: in vivo. The series is classed as ADME, organism-based, Canis lupus familiaris.
Series [12] is described as follows: Cmax in plasma was determined upon peroral administration of 10.0 mg/Kg dose in dog. The series is classed as ADME, organism-based, Canis lupus familiaris. The arrangement: dose 10 mg/Kg, route oral. To be noted: po.
A short description of series [13]: Tested for volume of distribution at steady state upon intravenous administration of 5.0 mg/Kg dose in dog. To be noted: in vivo, read-out: Vss. The series is classed as ADME, organism-based, Canis lupus familiaris.
Series [14] is described as follows: Tested for t1/2 upon peroral administration of 10.0 mg/Kg dose in rat. The series is classed as ADME, organism-based. The following applies: in vivo, po.
The subject of series [15] is Human immunodeficiency virus. The experiment in a line: Ability to inhibit p24 mutant variant […] was determined. The following applies: Human immunodeficiency virus 1. It counts as functional.
For series [16], the system named is Human immunodeficiency virus. The series can be described thus: Ability to inhibit p24 mutant variant V82F was determined. It counts as functional. To be noted: Human immunodeficiency virus 1.
Series [17] deals with Human immunodeficiency virus. The series can be described thus: Ability to inhibit p24 mutant variant V82F/[…] was determined. The series is classed as functional. The following applies: Human immunodeficiency virus 1.
Series [18] concerns Human immunodeficiency virus. The experiment in a line: Ability to inhibit p24 mutant variant HxB2 wild type was determined. It counts as functional. The following applies: Human immunodeficiency virus 1.
Series [19] in a line: tmax upon peroral administration of 10.0 mg/Kg dose in dog. It counts as ADME, organism-based, Canis lupus familiaris. The following applies: in vivo, po.
A short description of series [20]: Tested for t1/2 upon peroral administration of 10.0 mg/Kg dose in dog. The series is classed as ADME, organism-based, Canis lupus familiaris. To be noted: in vivo, po.
Series [21] can be described thus: Bioavailability upon peroral administration of 10.0 mg/Kg dose in rat. The series is classed as ADME, organism-based. The following applies: in vivo, po, read-out: Bioavailabiility.
A short description of series [22]: tmax upon peroral administration of 10.0 mg/Kg dose in rat. It counts as ADME, organism-based. To be noted: in vivo, po.

Structures are written as SMILES.

For `CC(C)(O)c1ccc(CN2C(=O)N(Cc3ccc(C(C)(C)O)cc3)[C@H](Cc3ccccc3)[C@H](O)[C@@H](O)[C@H]2Cc2ccccc2)cc1`, the Ki (commonly a dissociation constant, usually derived from enzyme kinetics or from competition with a known ligand) in series [1] was determined as 2.2 nM. In the series with Lymphocytoid cell line [2], the CC50 was found to be 39300 nM. Besides, the concentration for an effect of 90% (IC90) (usually the concentration at which the effect reaches the 90% level) in the series on Lymphocytoid cell line [3] was 8040 nM.
On to `O=C1N(Cc2cccc(CO)c2)[C@H](Cc2ccccc2)[C@H](O)[C@@H](O)[C@@H](Cc2ccccc2)N1Cc1cccc(CO)c1`, for which the Vd in series [4] amounted to 9.8 L/kg. Besides, the clearance (commonly the rate of elimination divided by the concentration) in series [5] is 103 mL/min/kg. For the same compound, the peak level in [6] (Cmax) was 470 ng/mL. The half-life (commonly how long it takes for the measured level to halve) in series [7] was 1.1 h. The compound further registered a Ki in [1] of 0.4 nM. Further, the 50% inhibitory concentration (IC50) (in general, the concentration needed to halve the response being measured) in series [8] was determined as 7.9 nM. The CC50 in the series on Lymphocytoid cell line [2] was determined as 54700 nM. This compound also returned an IC90 in the series with Lymphocytoid cell line [3] of 38.8 nM.
`CC(C)(O)c1cccc(CN2C(=O)N(Cc3cccc(C(C)(C)O)c3)[C@H](Cc3ccccc3)[C@H](O)[C@@H](O)[C@H]2Cc2ccccc2)c1`: the half-life in series [9] is 1.2 h; in series [7], 1.03 h; in [14] it was 1.5 h; in series [20], 0.65 h. Further, the bioavailability in [10] is < 4%. Also, the Vd in [4] turned out to be 3.04 L/kg; in [13] it was 1.65 L/kg. The clearance in series [5] is 31.8 mL/min/kg; in [11], 15.5 mL/min/kg. The peak concentration (Cmax) (as a rule, the maximum level reached in the sampled fluid or tissue) in series [12] is 240 ng/mL; in [6], 630 ng/mL. The affinity in [1], expressed as Ki, was 0.067 nM. The compound further gave an IC50 in [8] of 15 nM. For the same compound, the 90% effect concentration (IC90) in series [15] was 72.2 nM; in [16] it was 84.3 nM; in [17], 5780 nM; in [18] it was 22.2 nM; in the series with Lymphocytoid cell line [3] it was 33.7 nM. For the same compound, the CC50 in the series on Lymphocytoid cell line [2] was determined as 33400 nM. Moreover, in series [19], the time to peak (Tmax) (usually the time at which the peak concentration occurs) was 0.42 h.
Consider `O=C1N(Cc2ccc(CO)cc2)[C@H](Cc2ccccc2)[C@H](O)[C@@H](O)[C@@H](Cc2ccccc2)N1Cc1ccc(CO)cc1` [DMP-323], for which the half-life in series [9] was 1.8 h; in series [7], 0.95 h; in [14], 1.5 h; in series [20], 1.08 h. Besides, the bioavailability in series [10] was determined as 38.4%; in [21], 27.1%. Further, the values for the Vd in series [4] and in series [13] were 6.36 L/kg and 2.28 L/kg, respectively. Besides, the results for the clearance in [5] and in series [11] were 119 mL/min/kg and 24.7 mL/min/kg, respectively. Further, the Cmax in series [12] was 1480 ng/mL; in series [6] it was 450 ng/mL. Also, the results for the time of peak concentration (Tmax) in [22] and in [19] were 0.25 h and 0.5 h, respectively. For the same compound, the Ki in series [1] was 0.31 nM. Further, the IC50 in [8] was determined as 35.7 nM. Moreover, the IC90 was determined as 989 nM in series [15]; 675 nM in [16]; 22000 nM in [17]; 95.6 nM in series [18]; 176 nM in the series with Lymphocytoid cell line [3]. For the same compound, the CC50 in the series with Lymphocytoid cell line [2] was determined as 67500 nM.

The record behind these values is ChEMBL document CHEMBL1128104, “A bis-[N-3-(1-hydroxy-1-methyl-ethyl)-benzyl)-cyclic urea as a HIV protease inhibitor” (Bioorg Med Chem Lett, 1995).
